In paper PMC4465889 (Biochemical and biophysical research communications, 2014):

How the values were obtained:
[1] = target: V113L mutant human CB2 receptor (Homo sapiens, UniProt P34972, V113L); type: binding
[2] = target: L192A mutant human CB2 receptor (Homo sapiens, UniProt P34972, L192A); type: binding
Chain of L192A mutant human CB2 receptor (P34972 whole entry L192A): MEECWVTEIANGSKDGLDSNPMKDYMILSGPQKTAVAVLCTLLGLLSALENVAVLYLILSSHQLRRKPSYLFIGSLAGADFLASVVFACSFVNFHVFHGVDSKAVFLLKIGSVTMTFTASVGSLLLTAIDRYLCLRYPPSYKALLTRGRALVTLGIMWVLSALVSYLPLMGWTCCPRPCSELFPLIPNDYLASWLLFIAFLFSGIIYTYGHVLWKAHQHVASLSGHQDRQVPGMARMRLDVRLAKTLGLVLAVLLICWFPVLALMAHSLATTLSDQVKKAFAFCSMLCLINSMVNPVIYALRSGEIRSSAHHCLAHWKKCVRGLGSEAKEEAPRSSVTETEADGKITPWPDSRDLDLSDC

Chain of V113L mutant human CB2 receptor (P34972 whole entry V113L): as the sequence (P34972 whole entry L192A) above, with V113L, A192L counted along it

SR144528
Reduction of binding compared to wild type ([1]; V113L mutant vs wild type CB2): 6 fold | Effect of substitution on CB2 binding affinity compared to the wild-type ([1]; V113L mutant vs wild type CB2, in words): slight reduction | Reduction of binding compared to wild type ([2]; L192A mutant vs wild type CB2): 5 fold | Effect of substitution on CB2 binding affinity compared to the wild-type ([2]; L192A mutant vs wild type CB2, in words): slightly reduced
